One may read the IC50 as the point on the concentration scale where inhibition reaches its midpoint.

For 25 compounds, IC50 results are on record in patent US10793535B2, “Heterocyclic glutaminase inhibitors” (Calithera Biosciences, Inc., priority 2012, dated 2020).

Structures are written as SMILES.

The subject of the test is P493-6 (myc "on") cells. Nature of the test: Cell proliferation assay. It is filed as cell-based. As to conditions: P493-6, 72 h, read-out: Cell prolif P493 72 h IC50. Here is the method: P493-6 (myc “on”) cells were maintained in growth media (RPMI-1640, 10% FBS, 2 mM glutamine, 100 units/ml Penicillin and 100 μg/ml streptomycin) at 37° C. with 5% CO2. For compound assay, P493-6 cells were plated in 96-well V-bottom plates on the day of compound addition in 50 μl of growth media at a cell density of 200,000 cells/ml (10,000 cells/well). Compounds were serially diluted in 100% DMSO at 200-times the final concentration. Compounds were diluted 100-fold into growth media and then 50 μl of this mixture was added to cell plates making the final concentration of DMSO 0.5%. Cells were incubated with compound for 72 hrs at 37° C. with 5% CO2 and analyzed for antiproliferative effects either by Cell Titer Glo (Promega) or FACS analysis using the Viacount (Millipore) kit on the Guava instrument.
On to `O=C(Cc1ccccc1)Nc1nnc(CCSCCc2nnc(NC(=O)Cc3ccccc3)s2)s1` [Compound 1], for which the IC50 is 0.47 µM.

As to `CCCC(=O)OCN(C(=O)Cc1ccccc1)c1nnc(CCCCc2ccc(NC(=O)Cc3ccccc3)nn2)s1` [Compound 402], the IC50 was found to be 0.054 µM.

Consider `CC(C)(C)OC(=O)NCc1cccc(CC(=O)Nc2nnc(CCCCc3ccc(NC(=O)Cc4cccc(OC(F)(F)F)c4)nn3)s2)c1` [Compound 586], for which the IC50 worked out at 0.031 µM.

Turning to `CCOC(=O)NCc1cccc(CC(=O)Nc2nnc(CCCCc3ccc(NC(=O)Cc4cccc(OC(F)(F)F)c4)nn3)s2)c1` [Compound 600], the IC50 was 0.008 µM.

In the case of `O=C(Cc1ccccc1OC(F)(F)F)Nc1ccc(CCCCc2nnc(NC(=O)Cc3ccccc3)s2)nn1` [Compound 614], the IC50 turned out to be 0.082 µM.

With `O=C(Cc1ccc(OC(F)(F)F)cc1)Nc1ccc(CCCCc2nnc(NC(=O)Cc3ccccc3)s2)nn1` [Compound 615], the half-inhibitory concentration (IC50) was 0.12 µM.

With `CCCC(=O)OCN(C(=O)Cc1ccccc1)c1nnc(CCCCc2ccc(NC(=O)Cc3cccc(OC(F)(F)F)c3)nn2)s1` [Compound 629], the concentration for half-maximal inhibition (IC50) stood at 0.065 µM.

With `CC(C(=O)Nc1nnc(CCCCc2ccc(NC(=O)Cc3cccc(OC(F)(F)F)c3)nn2)s1)c1ccccc1` (stereo not shown) [Compound 636], the IC50 was 0.059 µM.

Take `Nc1nnc(CCCCc2ccc(NC(=O)Cc3cccc(OC(F)(F)F)c3)nn2)s1` [Compound 657]: the IC50 amounted to 1.5 µM.

As to `COc1cccc(CC(=O)Nc2nnc(CCCCc3ccc(NC(=O)Cc4cccc(OC(F)(F)F)c4)nn3)s2)c1` [Compound 658], the IC50 stood at 0.04 µM.

`O=C(Cc1cccc(OC(F)(F)F)c1)Nc1ccc(CCCCc2nnc(NC(=O)Cc3cc(F)ccc3F)s2)nn1` [Compound 659]: the IC50 amounted to 0.058 µM.

As for `O=C(Cc1cccc(OC(F)(F)F)c1)Nc1ccc(CCCCc2nnc(NC(=O)Cc3ccc(F)cc3)s2)nn1` [Compound 661], the IC50 was 0.12 µM.

Take `O=C(Cc1cccc(OC(F)(F)F)c1)Nc1ccc(CCCCc2nnc(NC(=O)Cc3cc(F)cc(F)c3)s2)nn1` [Compound 662]: the IC50 was determined as 0.055 µM.

In the case of `O=C(Cc1cccc(OC(F)(F)F)c1)Nc1ccc(CCCCc2nnc(NC(=O)Cc3cccc(F)c3F)s2)nn1` [Compound 663], the IC50 turned out to be 0.089 µM.

On to `O=C(Cc1cccc(OC(F)F)c1)Nc1ccc(CCCCc2nnc(NC(=O)Cc3ccccc3)s2)nn1` [Compound 666], for which the IC50 worked out at 0.058 µM.

For `O=C(Cc1cccc(OC(F)(F)F)c1)Nc1ccc(CCCCc2nnc(NC(=O)Cc3cccc(OC(F)F)c3)s2)nn1` [Compound 668], the IC50 came to 0.026 µM.

With `O=C(Cc1cccc(OC(F)(F)F)c1)Nc1ccc(CCCCc2nnc(NC(=O)Cc3cccc(OCC(F)(F)F)c3)s2)nn1` [Compound 669], the half-maximal inhibitory concentration (IC50) came out at 0.026 µM.

In the case of `O=C(Cc1cccc(OC(F)(F)F)c1)Nc1ccc(CCCCc2nnc(NC(=O)Cc3cccnc3)s2)nn1` [Compound 671], the concentration for half-maximal inhibition (IC50) is 0.035 µM.

As for `O=C(Cc1cccc(OC(F)(F)F)c1)Nc1ccc(CCCCc2nnc(NC(=O)Cc3ccncc3)s2)nn1` [Compound 672], the IC50 is 0.045 µM.

In the case of `O=C(Cc1cccc(OC(F)(F)F)c1)Nc1ccc(CCCCc2nnc(NC(=O)Cc3ccccc3F)s2)nn1` [Compound 673], the IC50 was 0.033 µM.

Regarding `CSc1cccc(CC(=O)Nc2nnc(CCCCc3ccc(NC(=O)Cc4cccc(OC(F)(F)F)c4)nn3)s2)c1` [Compound 674], the IC50 stood at 0.024 µM.

For `O=C(Cc1cccc(OC(F)(F)F)c1)Nc1ccc(CCCCc2nnc(NC(=O)Cc3cncnc3)s2)nn1` [Compound 675], the half-maximal inhibitory concentration (IC50) worked out at 0.04 µM.

Turning to `O=C(Cc1cccc(OC(F)(F)F)c1)Nc1ccc(CCCCc2nnc(NC(=O)Cc3cnccn3)s2)nn1` [Compound 676], the IC50 was 0.03 µM.

Consider `O=C(Cc1cccc(OC(F)(F)F)c1)Nc1ccc(CCCCc2nnc(NC(=O)Cc3ccon3)s2)nn1` [Compound 677], for which the IC50 worked out at 0.056 µM.

For the compound `O=C(Cc1cccc(OC(F)(F)F)c1)Nc1ccc(CCCCc2nnc(NC(=O)Cc3cscn3)s2)nn1` [Compound 678], the IC50 amounted to 0.026 µM.
